Measurements reported in US20240262812A1, “N-SUBSTITUTED PHENYLSULFONAMIDE COMPOUND AND USE THEREOF” (Shanghai Leado Pharmatech Co., Ltd., priority 2021, published 2024).

Legend:
[1] = test system: DSS induced inflammatory colitis in C57BL/6 mice; experiment: DSS induced inflammatory colitis model in C57BL/6 mice; type: in vivo, mouse; settings: 10 mg/kg oral once a day, day 0 to day 7; for DAI score: FIG. 3; for length of the colorectum / weight of the colorectum: FIG. 4; for level of colorectal inflammatory factor IL-10 (ELISA) / level of colorectal inflammatory factor TNF-α (ELISA): FIG. 5
Method: The therapeutic effect of compounds prepared in some examples of the present invention on DSS (dextran sulfate sodium) induced inflammatory colitis in C57BL/6 mice (corresponding to ulcerative colitis) was investigated.
• Animal species and strains: C57BL/6 mice • Administration record: No administration history • Gender and weight: Female, about 18-20 g • Breeding party/supplier: Shanghai SLAC Laboratory Animal Co., Ltd • Adaptation period: 7 days • Room: SPF Rooms • Indoor temperature: 20-26° C. • Indoor relative humidity: 40-70% • Lighting: Fluorescent lighting, 12-hour illumination (08:00-20:00) and 12 hour no illumination • Animal feeding: 2-5 mice per cage (same administration group) • Food: Unlimited access to feed (disinfected by irradiation, Shanghai SLAC Laboratory Animal Co., Ltd, China) • Water: Unlimited access to drinking water (tap water purified through ultra-pure water filtration system)
A total of 80 C57BL/6 mice were purchased from Shanghai SLAC Laboratory Animal Co., Ltd, of which 10 were used as backup animals to select animals with suitable weight range included in the groups. All backup animals are not subjected to any administration or modeling procedures and will be euthanized uniformly at the end of the experiment.
70 animals were selected on Day 3 and randomly grouped based on animal weight using BioBook software to ensure that the weight values of each group of animals were similar to reduce bias.
3.1 An appropriate amount of DSS powder was dissolved in high-pressure sterilized drinking water solvent and a 3% DSS solution was prepared.
3.2 Induction of Colitis: On day 3, 70 mice were randomly divided into 7 groups according to Table 7. From day 0 to day 4, mice in groups 2 to 7 drank 3% DSS aqueous solution for 5 days, followed by drank normal water ad libitum (from day 5 to before autopsy). The day of initial administration of DSS drinking water was counted as day 0. DSS aqueous solution was wrapped in opaque dark bags to ensure light avoidance. DSS aqueous solution was replaced every 2 days.
3.3. Dosage regimen: See Table 7.
Changes in body weight, feces, and bleeding of all groups of mice were record daily. Three items were scored according to Table 8 below, and the scores were added together to form the daily disease activity index (DAI) score.
After blood collection, the animals were euthanized by inhaling excessive CO2 and dislocation of cervical vertebra. Then the abdominal cavity was cut open and the colorectum was taken out. After removing the tissue around the colon, the longitudinal length from the ileocecal valve to the anus was measured. Afterwards, the colorectum was cut open and the contents of feces were scored. Finally, the intestinal contents were cleaned, and the entire colon was photographed and weighed.
Commercially available ELISA analysis kits were used to analyze the colorectal inflammation factors TNF-α and IL-10 in each group.
The health status of animals and their comprehensive response to DSS and drugs were observed every day. Any abnormal appearance or behavior other than those related to the development of the disease was recorded in detail in the Pharmalegacy Biological Experimental Observation Form.
The data was calculated as mean±standard error. Statistical analysis was performed using Graphpad Prism and SPSS software. The specific data is presented in the form of charts. When P<0.05, it is considered statistically significant.

[2] = test system: DNBS induced colitis in Wistar rats; experiment: DNBS induced colitis model in Wistar rats; type: in vivo, rat; design: Degree of adhesion (score) / Degree of intestinal infarction (score) / Severity of ulcer (score) / Degree of intestinal wall thickening (score) / Macroscopic colon score: scale not given here; settings: oral once a day Day 0 to Day 6, compounds 10 mg/kg, osalazine sodium 300 mg/kg; for Degree of adhesion (score) / Degree of intestinal infarction (score) / Degree of intestinal wall thickening (score) / Severity of ulcer (score): mean score per Table 4; for Ulcer length / Ulcer width: mean
Text: The therapeutic effect of compounds prepared in some examples of the present invention on 2,4-dinitrobenzenesulfonic acid (DNBS) induced ulcerative colitis in Wistar rats (corresponding to Crohn's disease) was investigated.
• Animal species and strains: Wistar rats • Administration record: No administration history • Gender and weight: Male, about 150 g • Breeding party/supplier: Shanghai SLAC Laboratory Animal Co., Ltd • Adaptation period: 5 days • Room: Regular Area Rooms • Indoor temperature: 20-26° C. • Indoor relative humidity: 40-70% • Lighting: Fluorescent lighting, 12-hour illumination (08:00-20:00) and 12-hour no illumination • Animal feeding: 2-4 rats per cage (same administration group) • Food: Unlimited access to feed (disinfected by irradiation, Jiangsu Xietong Pharmaceutical Bio-engineering Co., Ltd., China) • Water: Unlimited access to drinking water (treated with reverse osmosis and high-pressure sterilization)
A total of 80 Wistar rats were purchased from Shanghai SLAC Laboratory Animal Co., Ltd, of which 10 were used as backup animals to select animals with suitable weight range included in the groups, in order to control the fluctuation of disease severity caused by weight fluctuations.
BioBook software was used to screen 70 animals for random grouping based on animal weight to ensure that the weight values of each group of animals were similar to reduce bias.
3.1 DNBS powder was dissolved in 30% ethanol with a final concentration of 60 mg/mL.
3.2 Induction of colorectal inflammation: Before the experiment, rats were fasted for 40 hours and subcutaneously injected with 5% glucose saline during the fasting period. On the day 0 of the experiment, fasting rats were anesthetized by intraperitoneal injection of Zoletil and 5 mg/kg Xylazine. G2 group-G7 group, a hose was extended from the anus to the left curvature of the colorectum, and colorectal inflammation in rats was induced with DNBS enema. The normal control group (G1) was treated with 30% ethanol enema using the same method.
3.3. Dosage regimen: After DNBS induction in G1 and G2 groups of animals, solvent was administered. After DNBS induction in G3 group, 300 mg/kg of oxalazine sodium was administered. After DNBS induction in G4 to G7 groups, 10 mg/kg of the compounds of the present invention were administered respectively. Please refer to Table 3 for the administration time, specific administration dosage, and administration route. Starting from day 0 of modeling, the drugs were administered continuously for 7 days, and the animals were euthanized on day 6.
3.4 Testing indicators: After the experiment, all animals were euthanized by inhaling excessive CO2 and dislocation of cervical vertebra. After the abdominal cavity was cut open, the colorectum was taken out and the length of it was immediately measured. Then the colorectum was longitudinally cut open and rinsed clean. The weight of the colorectum and the area of the ulcer were recorded and the whole was photographed. At the same time, the damage to the rat colorectum was evaluated macroscopically according to Table 4.
The health status of animals and their comprehensive response to surgery and medication were observed every day.
The experimental data was calculated as mean±standard error. Statistical analysis was performed using Graphpad Prism, SPSS, or Sigmaplot software. The specific data is presented in the form of charts. P<0.05 is considered to have statistical differences.

Row | SMILES | DAI score [1] | length of the colorectum [1] | weight of the colorectum [1] | level of colorectal inflammatory factor IL-10 (ELISA) [1] | level of colorectal inflammatory factor TNF-α (ELISA) [1] | Degree of adhesion (score) [2] | Degree of intestinal infarction (score) [2] | Degree of intestinal wall thickening (score) [2] | Severity of ulcer (score) [2] | Ulcer length [2] | Ulcer width [2]
1 | CNCc1ccc(-c2nccs2)c(NS(=O)(=O)c2ccccc2)c1 [IA-51, N-(5-((methylamino)methyl)-2-(thiazol-2-yl)phenyl)benzenesulfonamide] | significantly reduce | increase | decrease | significantly reduce | significantly reduce | 0.07 | 0.00 | 0.27 | 0.60 | 0.31 cm | 0.20 cm
2 | CNCc1ccc(NS(=O)(=O)c2ccsc2)c(-c2ccco2)c1 [IA-30] | significantly reduce | increase | decrease | significantly reduce | significantly reduce | 0.00 | 0.00 | 0.13 | 0.80 | 0.33 cm | 0.19 cm
3 | CNCc1ccc(-c2cc[nH]n2)c(NS(=O)(=O)c2ccccc2)c1 [IA-55, N-(5-((methylamino)methyl)-2-(1H-pyrazol-3-yl)phenyl)benzenesulfonamide] | significantly reduce | increase | decrease | significantly reduce | significantly reduce | 0.10 | 0.10 | 0.30 | 1.20 | 0.60 cm | 0.40 cm
4 | NCc1ccc(NS(=O)(=O)c2ccsc2)c(-c2ccco2)c1 [ID-5] | significantly reduce | increase | decrease | significantly reduce | significantly reduce | 0.00 | 0.00 | 0.10 | 0.70 | 0.34 cm | 0.12 cm
